In US20220315624A1, “THIOSTREPTON ANALOGS AND METHODS OF MAKING AND USING SAME” (YALE UNIVERSITY, priority 2019, published 2022):
In brackets after ≈: the same amount, converted by molar mass.

Key:
S. aureus isolates = test: MIC broth microdilution, S. aureus isolates; format: cell-based
Method: (§1) Twenty-four test agents were shipped to Micromyx and stored at −20° C. until assayed. The compounds were dissolved in 100% DMSO at 6.46 mg/mL prior to testing. Comparator drugs were supplied by Micromyx and were handled as described below:
(§2) The test organisms for the assay were recent clinical isolates or reference strains acquired from the American Type Culture Collection (ATCC; Manassas, Va.). Upon receipt, the isolates were streaked onto Trypticase Soy Agar II+5% sheep blood (TSAB). Colonies were harvested from the plates and a cell suspension was prepared in Trypticase Soy Broth containing cryoprotectant. Aliquots were then frozen at −80° C. Prior to the assay, the frozen seeds of all bacterial isolates to be tested were thawed and streaked for isolation onto TSAB (BD/BBL, Sparks, Md.; Lot No. 9011894), and were incubated overnight at 35° C.
(§3) The test medium for all isolates was cation-adjusted Mueller Hinton broth (CAMHB; BD/BBL; Lot No. 8190586). CAMHB (Cation Adjusted Mueller Hinton Broth) was supplemented with 3% (v/v) lysed horse blood (LHB; Hemostat, Dixon, Calif.; Lot No. 474990) for the testing of streptococci.
(§4) MIC values were determined using a broth microdilution method as recommended by CLSI. Automated liquid handlers (Multidrop 384, Labsystems, Helsinki, Finland; Biomek 2000 and Biomek F/X, Beckman Coulter, Fullerton Calif.) were used to conduct serial dilutions and make liquid transfers.
(§5) The wells of standard 96-well microdilution plates (Costar 3795, Corning Inc., Corning, N.Y.) were filled with 150 μL of the appropriate diluent in columns 2-12 on the Multidrop 384 (DMSO for the thiostrepton analogs, deionized H2O for vancomycin and ceftazidime). These plates were used to prepare the drug “mother plate” which provided the serial drug dilutions for the replicate “daughter plates”. The compounds (300 μL) were dispensed at 101× the highest concentration to be tested into the appropriate row of the “mother plate”. The Biomek 2000 was used to transfer 150 μL of each stock solution from the wells in Column 1 of the mother plate to make ten subsequent 2-fold serial dilutions. The wells of Column 12 contained no drug and served as the organism growth control wells. The daughter plates were loaded with 190 μL of test medium using the Multidrop 384.
(§6) The daughter plates were prepared on the Biomek F/X instrument which transferred […] of drug solution from each well of the mother plate to each corresponding well of each daughter plate in a single step. The wells of the daughter plates ultimately contained 190 μL of media, 2 μL of drug solution, and 10 μL of inoculum prepared as described below. The final concentration of DMSO (if used as a solvent) in the test well was 1%.
(§7) A standardized inoculum of each organism was prepared per CLSI methods. A suspension of organisms from a fresh plate was prepared in CAMHB to equal the turbidity of a 0.5 McFarland standard. The suspensions were diluted 1:20 in CAMHB, or in the case of streptococci CAMHB with LHB. The inoculum for each organism was dispensed into sterile reservoirs divided by length (Beckman Coulter), and the Biomek 2000 was used to inoculate the plates. Daughter plates were placed on the Biomek 2000 work surface reversed so that inoculation took place from low to high drug concentration. The Biomek 2000 delivered 10 μL of standardized inoculum into each well. These dilutions yielded a final cell concentration in the daughter plates of approximately 5.0×10^5 CFU/mL.
(§8) Plates were stacked 3 high, covered with a lid on the top plate, placed in plastic bags, and incubated at 35° C. for 16-20 hr for all organisms except streptococci which were incubated for 20-24 hr. Following incubation, the microplates were removed from the incubator and viewed from the bottom using a plate viewer. The MIC was read and recorded as the lowest concentration of drug that inhibited visible growth of the organism. […]

[1] = system: E. faecalis and E. faecium; test: MIC broth microdilution, summary over enterococci; format: cell-based
Method: as §1, §2, §3, §4, §5, §6, §7, §8

[2] = Aqueous solubility analysis in MOPS buffer; format: physicochemical; conditions: after 24 hours in 10 mM aqueous MOPS buffer
Method: A 2 dram vial was loaded with ˜0.5 mg of a thiostrepton derivative and suspended in ˜4 mL of aqueous 10 mM MOPS buffer (pKa 7.2). The suspension was stirred vigorously for 24 h to ensure equilibration, then filtered through a […] centrifuge filtration unit. A 3.0 mL aliquot was concentrated, and the dried residue was diluted with 0.30 mL of 1:1 1,4-dioxane/H2O (10× original concentration necessitated by detection limits). The total UV absorbance (200-300 nm) was measured in triplicate by UPLC runs with a photodiode array detector. A calibration curve for each compound was created using data points from 3 trials each of concentrations in 1:1 1,4-dioxane/H2O ranging from […]. These concentrations were plotted against their respective average absorbances. The experimental concentration of each compound was calculated by dividing the found μg/mL value by the residue concentration factor of 10 to yield the actual solubility value.

[3] = Un-inoculated solubility control plate (drug precipitation); format: physicochemical
Gram-positive cocci = test: MIC broth microdilution, overall summary; format: cell-based; conditions: summary of MIC testing
Method: as §1, §2, §3, §4, §5
The daughter plates were prepared on the Biomek F/X instrument which transferred […] of drug solution from each well of the mother plate to each corresponding well of each daughter plate in a single step. […]
as §8, with “Following incubation, the microplates were removed from the incubator and viewed from the bottom using a plate viewer.” left out

[4] = system: S. aureus ATCC 29213 MSSA; test: MIC broth microdilution; format: cell-based; conditions: Staphylococcus aureus
Method: as §1, §2, §3, §4, §5, §6, §7, §8

S. aureus MMX 8088 MRSA = test: MIC broth microdilution; format: cell-based; conditions: Staphylococcus aureus, MRSA
Method: as §1, §2, §3, §4, §5, §6, §7, §8

[5] = system: S. pneumoniae ATCC 49619 PISP; test: MIC broth microdilution; format: cell-based; conditions: Streptococcus pneumoniae, ATCC49619, 20 h
Method: as §1, §2, §3, §4, §5, §6, §7, §8

S. pyogenes ATCC 19615 = test: MIC broth microdilution; format: cell-based; conditions: Streptococcus pyogenes, ATCC19615, 20 h
Method: as §1, §2, §3, §4, §5, §6, §7, §8

E. coli ATCC 25922 = test: MIC broth microdilution; format: cell-based
Method: as §1, §2, §3, §4, §5, §6, §7, §8

[6] = system: E. faecalis ATCC 29212 VSE; test: MIC broth microdilution; format: cell-based; conditions: Enterococcus faecalis, ATCC29212
Method: as §1, §2, §3, §4, §5, §6, §7, §8

E. faecium MMX 485 VRE = test: MIC broth microdilution; format: cell-based; conditions: Enterococcus faecium, VRE
Method: as §1, §2, §3, §4, §5, §6, §7, §8

E. faecalis MMX 486 VRE = test: MIC broth microdilution; format: cell-based; conditions: Enterococcus faecalis, VRE
Method: as §1, §2, §3, §4, §5, §6, §7, §8

E. faecium MMX 708 VSE = test: MIC broth microdilution; format: cell-based; conditions: Enterococcus faecium, MMX708VSE
Method: as §1, §2, §3, §4, §5, §6, §7, §8

[7] = system: S. pneumoniae and S. pyogenes isolates; test: MIC broth microdilution, summary over streptococci; format: cell-based; conditions: read-out: MIC values against S. pneumoniae and S. pyogenes isolates
Method: as §1, §2
The test medium for all isolates was cation-adjusted Mueller Hinton broth (CAMHB; BD/BBL; Lot No. 8190586). […]
MIC values were determined using a broth microdilution method as recommended by CLSI. […]
as §8, with “Following incubation, the microplates were removed from the incubator and viewed from the bottom using a plate viewer.” left out

[8] = system: S. pneumoniae ATCC 49619 PISP; conditions: range in parentheses; cited from earlier work
[9] = system: E. faecalis ATCC 29212 VSE; conditions: range in parentheses; cited from earlier work
[10] = system: S. aureus ATCC 29213 MSSA; conditions: range in parentheses; cited from earlier work

## C=C(NC(=O)C(=C)NC(=O)c1csc(C2=N[C@@H]3c4csc(n4)[C@H]4NC(=O)c5csc(n5)[C@H]([C@](C)(O)[C@@H](C)O)NC(=O)[C@H]5CSC(=N5)/C(=C/C)NC(=O)[C@H]([C@@H](C)O)NC(=O)c5csc(n5)[C@]3(CC2)NC(=O)[C@H](C)NC(=O)C(=C)NC(=O)[C@H](C)NC(=O)[C@H]([C@@H](C)CC)N[C@@H]2C=Cc3c([C@H](C)O)cc(nc3[C@H]2O)C(=O)O[C@@H]4C)n1)C(N)=O [Thiostrepton]
S. aureus isolates; Staphylococcus aureus, read-out: MIC values against S. aureus isolates
  MIC: 0.06 to 0.12 µg/mL (≈ 0.036 to 0.0721 µM)
S. aureus isolates; identical or within 2-fold, impact of methicillin resistance
  MIC values against MRSA relative to MSSA: ≤ 2 fold
[1]; impact of vancomycin resistance among enterococci
  VRE MIC values relative to VSE MIC values: comparable
[1]; read-out: MIC values against E. faecalis and E. faecium
  MIC: 0.06 to 0.12 µg/mL (≈ 0.036 to 0.0721 µM)
[2]
  Solubility pH 7.2: 3.0 (±0.2) μg/mL
[3]; at 64 μg/mL in CAMHB
  Precipitation in CAMHB: distinct precipitation
[3]; at 64 μg/mL in CAMHB in LHB
  Precipitation in CAMHB in LHB: distinct precipitation
Gram-positive cocci
  Activity among the evaluated analogs / against evaluated Gram-positive cocci (summary in words): potent activity
[4]
  MIC: 0.06 µg/mL (≈ 0.036 µM)
S. aureus MMX 8088 MRSA
  MIC: 0.12 µg/mL (≈ 0.0721 µM)
[5]
  MIC: < 0.001 µg/mL
S. pyogenes ATCC 19615
  MIC: < 0.001 µg/mL
E. coli ATCC 25922; E. coli ATCC 25922, CAMHB
  MIC: >64 µg/mL
E. coli ATCC 25922; Escherichia coli, ATCC25922
  MIC: > 64 µg/mL
[6]
  MIC: 0.12 µg/mL (≈ 0.0721 µM)
E. faecium MMX 485 VRE
  MIC: 0.06 µg/mL (≈ 0.036 µM)
E. faecalis MMX 486 VRE
  MIC: 0.12 µg/mL (≈ 0.0721 µM)
E. faecium MMX 708 VSE
  MIC: 0.12 µg/mL (≈ 0.0721 µM)
[7]
  MIC: ≤ 0.001 µg/mL

## CN[C@H](CC(C)C)C(=O)N[C@H]1C(=O)N[C@@H](CC(N)=O)C(=O)N[C@H]2C(=O)N[C@H]3C(=O)N[C@H](C(=O)N[C@H](C(=O)O)c4cc(O)cc(O)c4-c4cc3ccc4O)[C@H](O)c3ccc(c(Cl)c3)Oc3cc2cc(c3O[C@@H]2O[C@H](CO)[C@@H](O)[C@H](O)[C@H]2O[C@H]2C[C@](C)(N)[C@H](O)[C@H](C)O2)Oc2ccc(cc2Cl)[C@H]1O [Vancomycin, reference compound]
[4]
  MIC: 1 µg/mL (≈ 0.69 µM)
S. aureus MMX 8088 MRSA
  MIC: 1 µg/mL (≈ 0.69 µM)
[5]
  MIC: 0.12 µg/mL (≈ 0.0828 µM)
S. pyogenes ATCC 19615
  MIC: 0.25 µg/mL (≈ 0.173 µM)
E. coli ATCC 25922; Escherichia coli, ATCC25922
  MIC: > 64 µg/mL
[6]
  MIC: 2 µg/mL (≈ 1.38 µM)
E. faecium MMX 485 VRE
  MIC: > 32 µg/mL
E. faecalis MMX 486 VRE
  MIC: > 32 µg/mL
E. faecium MMX 708 VSE
  MIC: 0.25 µg/mL (≈ 0.173 µM)
[8]
  CLSI quality control range (MIC): 0.12 to 0.5 µg/mL
[9]
  CLSI quality control range (MIC): 1 to 4 µg/mL
[10]
  CLSI quality control range (MIC): 0.5 to 2 µg/mL
